These results are taken from US20240374523A1, “STABILIZED APILIMOD COMPOSITIONS AND USES THEREOF” (Orphai Therapeutics Inc., priority 2021, published 2024).

In brackets after ≈: the same amount, converted by molar mass. Entries after “also recorded” stand apart in the source; their conditions may differ. Counter-ions that a name gives are not always drawn. Like-named read-outs stand apart in the source and are kept apart here. A value given as a limit tells only on which side of the number the result lay.

The conditions of data set [1]: cited from earlier work.
A short description of data set [2]: Solubility of apilimod vs pH in 0.1N HCl and Britton-Robinson buffers. It counts as physicochemical. Conditions: for solubility at 3 days / solubility thermodynamic at 3 days: thermodynamic from solid; for solubility thermodynamic at 3 days: Britton-Robinson buffer. How it is done: Next, the solubility of apilimod at various pH was evaluated. The samples were prepared at room temperature in 0.1N HCl (pH 1) and Britton-Robinson buffers (BRB) pH 2, 3, 4, 5, 6, 7 and 8. After 3 days, each sample was centrifuged for 30 min, the solution was filtered and the concentration of apilimod determined by HPLC analysis. HPLC analysis was carried out using an XTerra MS C18 (5 μm 4.6×150 mm) column and 18-minute gradient HPLC conditions.

Data set [3] is described as follows: PXRD of residual solids after the IDR experiment. It counts as physicochemical. The following applies: pellet surface after IDR experiment, compared with input API. How it is done:
X-Ray Powder Diffraction (XRPD). […] Configuration on the incidental beam side: variable divergence slits (10 mm irradiated length), 0.04 rad Soller slits, fixed anti-scatter slit) (0.50°, and 10 mm beam mask. Configuration on the diffracted beam side: variable anti-scatter slit (10 mm observed length) and 0.02 rad Soller slit. Samples were mounted flat on zero-background Si wafers.
At the end of the IDR analysis, the pellet surface was analyzed by PXRD and compared to its corresponding input API for any physical changes.

A further data set concerns IL-12/IL-23 synthesis. The following applies: oral administration, patients with psoriasis, open-label (Wada et al. 2012); cited from earlier work.
The subject of data set [4] is synovial IL-12 and IL-23 expression. Conditions: patients with rheumatoid arthritis, Phase II (Krauz et al. 2012); cited from earlier work.
In the next data set the test system is active Crohn's disease. Conditions: active Crohn's disease (Sands et al. 2010); cited from earlier work.
Data set [5] is described as follows: Kinetic solubility in FaSSIF (pH 6.5). The following applies: FaSSIF pH 6.5, 1 hour. It counts as physicochemical. The method, then:
Additional kinetic solubility studies were carried out in Fasted State Simulated Intestinal Fluid (FaSSIF) at pH6.5 at ambient temperature and the results are shown in FIG. 3. FaSSIF helps reveal how an oral drug is likely to dissolve and potentially be absorbed in fluid from the upper intestine after drinking a glass of water. […] After 1 hour of stirring, all samples appeared to be hazy suspensions, but after 4 and 24 hours their appearance changed to a milky white suspension by PXRD analysis.

Data set [6] is described as follows: Kinetic solubility in FaSSGF (pH 1.6). The following applies: after test in FaSSGF. How it is done: Kinetic solubility studies were carried out on the various apilimod salts provided in Table 1 in Fasted State Simulated Gastric Fluid (FaSSGF) at pH 1.6 at ambient temperature. FaSSGF is a dissolution medium that has the average acidic pH and similar osmolarity of fasted gastric fluid. FaSSGF that can help reveal how an oral drug is likely to behave in the stomach after drinking a glass of water. The stability, solubility and dissolution data generated from testing in FaSSGF can help identify critical factors influencing a drug's absorption in the fasted state, and in turn facilitate the selection of the appropriate solid state and formulation approach for a drug.

Data set [7] in a line: Intrinsic dissolution rate (stationary disk, 0.01N HCl). It counts as physicochemical. Set-up: Intrinsic Dissolution Rate free base equivalent: unit not given here. Conditions: 37° C.; for Intrinsic Dissolution Rate free base equivalent: disk pressed at 3900 psi, 700 mL 0.01N HCl, paddle 50 rpm, UV 333 nm. The method, then:
Stationary disks for apilimod free base and the nine apilimod salts were prepared. Intrinsic dissolution rate of the free base and the nine salts were prepared from preparations at 3900 psi. Each disk was placed into a flat bottom vessel containing 700 mL of 0.01N HCl medium equipped with a Distek Dissolution bath, and a Distek cirvulator/heater set to 37°° C. with a paddle speed of 50 rpm. The Opt-Diss 405 system single analytical wavelength settings was 333 nm with a background wavelength setting of 400 nm and reading were taken every 1 minute to 35 minutes. […] The kinetic solubility of the salt behavior is unpredictable and the dramatic difference between the non-mesylate salts was an unexpected discovery in the behavior of the salts.

The conditions of data set [8]: aqueous solubility of the disalt; cited from earlier work.
[9] abbreviates: pKa of the counter-acid, not of the apilimod salt.

With 1-hydroxy-2-naphthoate, in [1] (setting [9]), the “pKa of Acid (first value)” value is recorded as 2.7 and the “pKa of Acid (second value)” value is listed as 13.5.

In the case of `Cc1cccc(/C=N/Nc2cc(N3CCOCC3)nc(OCCc3ccccn3)n2)c1` [Apilimod], the solubility at 3 days in [2] (0.1N HCl, pH 1, simulated gastric fluid, pH of approximately 1, read-out: solubility) was more than 10000 µg/mL; in data set [2] (simulated gastric fluid, pH 1 (0.1N HCl), medium pH 1.08, prep. 11 mg/mL, room temperature, Day 3 pH 1.44, read-out: Conc Day 3), more than 10700 µg/mL. The “PXRD of Residuals Day 3” value is “Phosphate salt” in data set [2] (BRB pH 2); “Phosphate salt” in [2] (BRB pH 3); “Free base, hydrate Group B” in data set [2] (BRB pH 4); “Free base, hydrate Group B” in [2] (BRB pH 5); “Free base, hydrate Group B” in data set [2] (BRB pH 6); “Free base, hydrate Group B” in data set [2] (BRB pH 7). The “PXRD of Residuals Day 3” value in data set [2] (BRB pH 8) is given as “Free base, hydrate Group B”; in [2] (pH 1 (0.1N HCl)), “In solution; no excess solid”. Also, the “Conc Day 3” value in data set [2] (BRB pH 2, medium pH 1.99, prep. 11 mg/mL, room temperature, Day 3 pH 2.75) is 137 µg/mL. Also, the solubility thermodynamic at 3 days in data set [2] (aqueous buffer, BRB pH 2, medium pH 1.99, prep. 11 mg/mL, room temperature, Day 3 pH 2.75, read-out: Conc Day 3) is 137 µg/mL (≈ 327 µM); in data set [2] (aqueous buffer, BRB pH 3, medium pH 2.88, prep. 2.8 mg/mL, room temperature, Day 3 pH 3.61, read-out: Conc Day 3), 17.3 µg/mL (≈ 41.3 µM); in data set [2] (aqueous buffer, BRB pH 4, medium pH 4.11, prep. 2.8 mg/mL, room temperature, Day 3 pH 4.22, read-out: Conc Day 3), 2.3 µg/mL (≈ 5.5 µM); in data set [2] (aqueous buffer, BRB pH 5, medium pH 5.04, prep. 2.8 mg/mL, room temperature, Day 3 pH 5.08, read-out: Conc Day 3), 0.2 µg/mL (≈ 0.478 µM); in data set [2] (aqueous buffer, BRB pH 6, medium pH 6.15, prep. 2.7 mg/mL, room temperature, Day 3 pH 6.18, read-out: Conc Day 3), less than 0.1 µg/mL; in data set [2] (aqueous buffer, BRB pH 7, medium pH 7.18, prep. 2.7 mg/mL, room temperature, Day 3 pH 7.21, read-out: Conc Day 3) it was less than 0.1 µg/mL. In addition, the solubility thermodynamic at 3 days in data set [2] (pH 7.9, aqueous buffer, BRB pH 8, medium pH 7.90, prep. 2.8 mg/mL, room temperature, Day 3 pH 8.01, read-out: Conc Day 3) is less than 0.1 µg/mL. In addition, the “Residual Solids By XRPD” value in data set [3] (listed as Free base) was “Matches Input”; in [3] (listed as free base), “match the XRPD pattern of the initial input material”. Further, the immunomodulatory activity entry in the data set on IL-12/IL-23 synthesis is “showed immunomodulatory activity supporting the inhibition of IL-12/IL-23 synthesis”. Also, in data set [4], the “effect on synovial IL-12 and IL-23 expression” value was “failed to alter synovial IL-12 and IL-23 expression”. In addition, the efficacy over placebo entry in the data set with active Crohn's disease is given as “did not demonstrate efficacy over placebo”. Besides, the tolerability entry in the data set with active Crohn's disease is given as “well tolerated”.

Turning to `Cc1cccc(/C=N/Nc2cc(N3CCOCC3)nc(OCCc3ccccn3)n2)c1` [HCl], the “solubility in FaSSIF relative to other forms” value in data set [5] is “higher solubility at 1 hour compared to the other salts and the freebase”. For the same compound, in [3], the “Residual Solids By XRPD” value was “match the XRPD pattern of the initial input material; also recorded: Matches Input”. Further, the pKa of acid in [1] (strong acids required for disalt formation, per the '436 patent) is −4.5.

In the case of `Cc1cccc(/C=N/Nc2cc(N3CCOCC3)nc(OCCc3ccccn3)n2)c1.Cc1cccc(/C=N/Nc2cc(N3CCOCC3)nc(OCCc3ccccn3)n2)c1.O=C(O)/C=C/C(=O)O` [Hemi-fumarate], in data set [6], the “residues by powder diffraction (PXRD)” value was “crystalline, and matched input salts”. Besides, the “intrinsic dissolution rate relative to D/L-Lactate and HCl salts” value in data set [7] (0.01N HCl) is “less that 10-times lower”. Moreover, the “Residual Solids By XRPD” value in [3] is on record as “Matches Input”. Besides, the “Residual Solids By XRPD” value in [3] (listed as hemi-fumarate) is listed as “match the XRPD pattern of the initial input material”. Also, in [1] (setting [9]), the “pKa of Acid (first value)” value is 3.0 and the “pKa of Acid (second value)” value is given as 4.4.

As to `Cc1cccc(/C=N/Nc2cc(N3CCOCC3)nc(OCCc3ccccn3)n2)c1.O=C(O)CC(=O)O` [Malonate], the “Residual Solids By XRPD” value in data set [3] is listed as “Matches Input”. In addition, the “Residual Solids By XRPD” value in data set [3] (listed as malonate) is listed as “match the XRPD pattern of the initial input material”. Besides, in data set [1] (setting [9]), the “pKa of Acid (first value)” value was 2.8 and the “pKa of Acid (second value)” value was 5.7.

For `Cc1cccc(/C=N/Nc2cc(N3CCOCC3)nc(OCCc3ccccn3)n2)c1.O=P(O)(O)O` [Phosphate], the “Residual Solids By XRPD” value in data set [3] is “Matches Input”. Also, in data set [3] (listed as phosphate), the “Residual Solids By XRPD” value is on record as “match the XRPD pattern of the initial input material”. Also, in data set [1] (setting [9]), the “pKa of Acid (first value)” value is 2.0, the “pKa of Acid (second value)” value was 7.1 and the “pKa of Acid (third value)” value is on record as 12.3.

As to `Cc1cccc(/C=N/Nc2cc(N3CCOCC3)nc(OCCc3ccccn3)n2)c1.O=C(O)CCC(=O)O` [Succinate], in data set [1] (setting [9]), the “pKa of Acid (first value)” value is on record as 4.2 and the “pKa of Acid (second value)” value is 5.6.

Consider `Cc1cccc(C=NNc2cc(N3CCOCC3)nc(OCCc3ccccn3)n2)c1.Cl.Cl` [dichloride], for which the solubility in water in [8] was 213000 µg/mL.

Glycolate: the “Intrinsic Dissolution Rate free base equivalent” value in data set [7] was 0.2670. The “Residual Solids By XRPD” value in data set [3] is “consistent with the input material and the poorly crystalline phase”. In addition, the “pKa of Acid (first value)” value in data set [1] (setting [9]) was 3.3.

For the compound L-Tartrate, the “Intrinsic Dissolution Rate free base equivalent” value in [7] turned out to be 0.3399. The “Residual Solids By XRPD” value in [3] is “match the XRPD pattern of the initial input material; also recorded: Matches Input”. For the same compound, in data set [1] (setting [9]), the “pKa of Acid (first value)” value is 3.0 and the “pKa of Acid (second value)” value is 4.4.

For Maleate, the “residues by powder diffraction (PXRD)” value in [6] was “crystalline, and matched input salts”. In addition, the “Intrinsic Dissolution Rate free base equivalent” value in [7] is on record as 0.0871. Further, the “Residual Solids By XRPD” value in data set [3] is on record as “Matches Input”. In addition, the “Residual Solids By XRPD” value in data set [3] (listed as maleate) is reported as “match the XRPD pattern of the initial input material”. Besides, in [1] (setting [9]), the “pKa of Acid (first value)” value was 1.9 and the “pKa of Acid (second value)” value was 6.2.
